Values quoted from earlier work, collected in US12564203B2, “Coating composition comprising pH-sensitive polymer” (CJ CHEILJEDANG CORPORATION, priority 2020, dated 2026).

Conditions: degree of hydrophilicity (hydrophobicity) of an amino acid

Row | SMILES | hydropathy index
1 | N=C(N)NCCC[C@H](N)C(=O)O [arginine] | −4.5
2 | CC[C@H](C)[C@H](N)C(=O)O [isoleucine] | 4.5
3 | NCCCC[C@H](N)C(=O)O [lysine] | −3.9
4 | CC(C)[C@H](N)C(=O)O [valine] | 4.2
